Laboratory results reported in patent US20240262842A1, “SMALL MOLECULE INHIBITORS OF KRAS G12C MUTANT” (Merck Sharp & Dohme LLC, priority 2021, published 2024).
pIC50: −log10 of the molar value. Where two headings read alike, the source gives them in different places.

Columns and labels:
[1] = target: T1, interaction between GMPPNP-bound recombinant K-Ras4B G12C mutant protein and cRAF RAS-binding domain (cRAF-RBD) (Homo sapiens, UniProt P01116, G12C); test: Inhibitory activity on interaction between KRAS G12C and cRAF (Alpha technology)
T1 construct: His-tag (N)
T1 sequence (P01116 with tags, fused parts or gaps isoform P01116-2 G12C): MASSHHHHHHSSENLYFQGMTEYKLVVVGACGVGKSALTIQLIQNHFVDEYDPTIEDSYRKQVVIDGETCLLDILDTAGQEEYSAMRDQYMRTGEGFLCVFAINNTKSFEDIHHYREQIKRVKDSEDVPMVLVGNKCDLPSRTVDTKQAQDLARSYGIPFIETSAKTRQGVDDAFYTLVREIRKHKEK
Method in brief: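 His-tagged K-Ras4B G12C (aa 1-169), GMPPNP-loaded, preincubated with compound 1 h at 25° C in pH 7.5 Tris buffer with MgCl2, TCEP, Tween 20. cRAF-RBD (aa 50-132) and Alpha reagents then added for 1.5 h; Alpha signal normalised to DMSO (0%) and GDP-bound KRAS (100%); IC50 from dose titration.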

MIA PaCa-2 cells = test: Growth inhibition activity on KRAS-G12C mutant cell line (CellTiter-Glo 3D); type: cell-based, human; settings: MIA PaCa-2, 3-day culture with compound
Method in brief: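 MIA PaCa-2 cells in RPMI1640 with 10% FBS, U-bottom wells, cultured 1 day before compound (0.2% DMSO final), then 3 days at 37 °C, 5% CO2. Viability by CellTiter-Glo 3D luminescence; growth inhibition versus untreated wells gives IC50 (nM).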

[2] = GMPPNP-bound KRAS G12C incubated with compound 25° C. 1 hour, Table 2-1, read-out: IC50
[3] = Homo sapiens, MIA PaCa-2, 72 h, Table 3-1
[4] = IC50, GMPPNP-bound KRAS G12C incubated with compound 25° C. 1 hour, Table 2-1
[5] = IC50, GMPPNP-bound KRAS G12C incubated with compound 25° C. 1 hour, Table 2

SMILES	pIC50 [1, 2]	pIC50 (MIA PaCa-2 cells; [3])	also measured
Cn1cnc2c3c(c(C(F)(F)F)cc21)-c1cccn2c(C(=O)c4cc(F)c(NC(=O)/C=C/CNC5(C)COC5)c(F)c4)cc(c12)CCO3 (single isomer, unassigned) [Example 75, (E)-N-(2,6-difluoro-4-(9-methyl-7-(trifluoro-methyl)-13,14-dihydro-9H-imidazo[4″,5″:5′,6′]-benzo[1′,2′:2,3]oxocino-[4,5,6-hi]indolizine-2-carbonyl)phenyl)-4-((3-methyloxetan-3-yl)-amino)but-2-enamide]	7.80	8.02	
COCc1nc2c3c(c(C)cc2n1C)-c1cccn2c(C(=O)c4cc(F)c(NC(=O)/C=C/CN[C@H]5CC[C@H](OC)CC5)c(F)c4)cc(c12)CCN3C (single isomer, unassigned) [Example 105, (E)-N-(2,6-difluoro-4-(10-(methoxymethyl)-7,9,12-trimethyl-9,12,13,14-tetra-hydroimidazo[4″,5″:5′,6′]-benzo[1′,2′:2,3]azocino-[4,5,6-hi]indolizine-2-carbonyl)phenyl)-4-(((1r,4r)-4-methoxycyclo-hexyl)amino)but-2-en-amide]	7.72	7.81	
CC(=O)CC(C)(C)NC/C=C/C(=O)Nc1c(F)cc(C(=O)c2cn3c4c(cccc24)-c2c(C)cc4c(nc(C)n4C)c2N(C)CC3)cc1F [Example 108]		6.48	pIC50 [1, 4]: 7.27
Cc1c2cc(C(F)(F)F)c3c(c2nn1C)N(C)CCc1cc(C(=O)c2cc(F)c(NC(=O)/C=C/CN[C@H]4CCOC4)c(F)c2)n2cccc-3c12 (single isomer, unassigned) [Example 154]	7.99	8.10	
Cc1cc2c(nc(C)n2C)c2c1-c1cccc3c(C(=O)c4cc(F)c(NC(=O)/C=C/CNC56CCC(CC5)OC6)c(F)c4)cn(c13)CCN2C [Example 119, (E)-4-((2-oxabicyclo-[2.2.2]octan-4-yl)amino)-N-(2,6-difluoro-4-(6,8,9,11-tetramethyl-8,11,12,13-tetrahydro-imidazo[4″,5″:5′,6′]benzo-[1′,2′:5,6][1,4]diazocino-[7,8,1-hi]indole-2-carbon-yl)phenyl)but-2-enamide]			pIC50 [1, 4]: 7.77; pIC50 (MIA PaCa-2 cells; Table 3-1): 8.03
COCCn1cnc2c3c(c(C(F)(F)F)cc21)-c1cccn2c(C(=O)c4cc(F)c(NC(=O)/C=C/CN[C@H]5CCOC5)c(F)c4)cc(c12)CCN3C (single isomer, unassigned) [Example 186]	7.78	7.99	
COCCn1cnc2c3c(c(C(F)(F)F)cc21)-c1cccn2c(C(=O)c4cc(F)c(NC(=O)/C=C/CNC5(C)COC5)c(F)c4)cc(c12)CCN3C (single isomer, unassigned) [Example 178, (E)-N-(2,6-difluoro-4-(9-(2-methoxyethyl)-12-methyl-7-(trifluorometh-yl)-9,12,13,14-tetrahydro-imidazo[4″,5″:5′,6′]benzo-[1′,2′:2,3]azocino[4,5,6-hi]indolizine-2-carbonyl)-phenyl)-4-((3-methyl-oxetan-3-yl)amino)but-2-enamide]	7.49	7.38	
COc1cc(N2CCCC2=O)cc2c1-c1cccn3c(C(=O)c4cc(F)c(NC(=O)/C=C/CN[C@H]5CCOC5)c(F)c4)cc(c13)CCN2C [Example 191, (S,E)-N-(2,6-difluoro-4-(9-methoxy-5-methyl-7-(2-oxopyrrolidin-1-yl)-4,5-dihydro-3H-benzo-[2,3]azocino[4,5,6-hi]-indolizine-1-carbonyl)-phenyl)-4-((tetrahydro-furan-3-yl)amino)but-2-enamide]	7.01	6.78	
Cn1cnc2c3c(c(C(F)(F)F)cc21)-c1cccn2c(C(=O)c4cc(F)c(NC(=O)/C=C/CN5CC6COCC5C6)c(F)c4)cc(c12)CCO3 (centres unmarked) [Example 230, (E)-4-(3-oxa-6-azabicyclo-[3.2.1]octan-6-yl)-N-(2,6-difluoro-4-(9-methyl-7-(trifluoromethyl)-13,14-dihydro-9H-imidazo-[4″,5″:5′,6′]benzo[1′,2′: 2,3]oxocino[4,5,6-hi]-indolizine-2-carbonyl)-phenyl)but-2-enamide]	7.70	7.84	
Cc1cc2c(nc(C)n2C)c2c1-c1cccc3c(C(=O)c4cc(F)c(NC(=O)/C=C/CNC(C)(C)C)c(F)c4)cn(c13)CCO2 [Example 13, (E)-4-(tert-butylamino)-N-(2,6-difluoro-4-(6,8,9-trimethyl-12,13-dihydro-SH-imidazo[4″,5″:3′,4′]benzo[1′,2:7,8][1,4]oxazocino[6,5,4-hi]indole-2-carbonyl)phenyl)but-2-enamide]			pIC50 [1, 5]: 7.77; pIC50 (MIA PaCa-2 cells; Homo sapiens, MIA PaCa-2, 72 h, Table 3): 7.23
Cn1cnc2c3c(c(C(F)(F)F)cc21)-c1cccn2c(C(=O)c4cc(F)c(NC(=O)/C=C/CN[C@H]5[C@@H]6COC[C@@H]65)c(F)c4)cc(c12)CCO3 [Example 147, (E)-4-(((1R,5S,6r)-3-oxa-bicyclo[3.1.0]hexan-6-yl)amino)-N-(2,6-difluoro-4-(9-methyl-7-(trifluoro-methyl)-13,14-dihydro-9H-imidazo[4″,5″:5′,6′]-benzo[1′,2′:2,3]oxocino-[4,5,6-hi]indolizine-2-carbonyl)phenyl)but-2-enamide]	8.13	7.82	
CN1CCn2cc(C(=O)c3cc(F)c(NC(=O)/C=C/CNC4(C)COC4)c(F)c3)c3cccc(c32)-c2c(C(F)(F)F)cc3c(ncn3C)c21 [Example 61, (E)-N-(4-(8,11-dimethyl-6-(trifluoromethyl)-8,11,12,13-tetrahydro-imidazo[4″,5″:5′,6′]benzo-[1′,2′:5,6][1,4]diazocino-[7,8,1-hi]indole-2-carbon-yl)-2,6-difluorophenyl)-4-((3-methyloxetan-3-yl)-amino)but-2-enamide]		7.79	pIC50 [1, 4]: 7.12
COc1cc2c(nc(C(F)(F)F)n2C)c2c1-c1cccn3c(C(=O)c4cc(F)c(NC(=O)/C=C/CN[C@H]5CCOC5)c(F)c4)cc(c13)CCN2C (single isomer, unassigned) [Example 168]	7.36	7.81	
CO[C@H]1CC[C@H](NC/C=C/C(=O)Nc2c(F)cc(C(=O)c3cn4c5c(cccc35)-c3c(cc(N5CCCC5=O)cc3C(F)(F)F)OCC4)cc2F)CC1 (single isomer, unassigned) [Example 5-2, (E)-N-(2,6-difluoro-4-(8-(2-oxopyrrolidin-1-yl)-10-(trifluoromethyl)-4,5-dihydrobenzo[7,8][1.4]oxazocino[6,5,4-hi]indole-1-carbonyl)phenyl)-4-(((1r,4t)-4-methoxycyclohexyl)amino)but-2-enamide]			pIC50 [1, 5]: < 5.17; pIC50 (MIA PaCa-2 cells; Table 3): 5.74
CO[C@H]1CC[C@H](NC/C=C/C(=O)Nc2c(F)cc(C(=O)c3cn4c5c(cccc35)-c3c(C)cc5c(nc(C)n5C)c3N(C)CC4)cc2F)CC1 (single isomer, unassigned) [Example 62]		8.16	pIC50 [1, 4]: 7.76
COc1cc2c(ncn2C)c2c1-c1cccn3c(C(=O)c4cc(F)c(NC(=O)/C=C/CN[C@H]5CCOC5)c(F)c4)cc(c13)CCN2C (single isomer, unassigned) [Example 159]	8.14	8.09	
